Source: ChEMBL document CHEMBL1136705, “Analogues of dealanylalahopcin are inhibitors of human HIF prolyl hydroxylases” (Bioorg Med Chem Lett, 2003)

Molecular target: Prolyl hydroxylase EGLN2 (Homo sapiens, UniProt Q96KS0)
Experiment: Inhibitory activity against purified fusion of maltose binding with PHD1 as enzyme and […]

Prolyl hydroxylase EGLN2, sequence (Q96KS0 whole entry, the tested form may be a part): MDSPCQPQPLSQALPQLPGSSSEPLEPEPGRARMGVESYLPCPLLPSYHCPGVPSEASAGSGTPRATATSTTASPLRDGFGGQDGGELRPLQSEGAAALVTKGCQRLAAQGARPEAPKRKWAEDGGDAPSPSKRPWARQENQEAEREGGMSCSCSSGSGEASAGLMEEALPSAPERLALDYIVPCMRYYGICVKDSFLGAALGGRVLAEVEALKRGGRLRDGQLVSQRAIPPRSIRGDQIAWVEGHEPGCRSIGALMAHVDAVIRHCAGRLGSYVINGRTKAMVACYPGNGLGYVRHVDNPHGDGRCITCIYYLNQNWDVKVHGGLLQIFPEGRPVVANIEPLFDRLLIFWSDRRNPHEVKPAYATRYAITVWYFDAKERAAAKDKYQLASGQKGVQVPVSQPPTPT

`O=C(O)CC1CC(=O)N(O)C1=O` (racemic) was tested. Which IC50 did it give?
The IC50 was 1000 µM.
